Laboratory results from publication PMC11272598, “RG7774 (Vicasinabin), an orally bioavailable cannabinoid receptor 2 (CB2R) agonist, decreases retinal vascular permeability, leukocyte adhesion, and ocular inflammation in animal models” (Frontiers in Pharmacology, 2024).

Columns and labels:
[1] = biological target: T1, endogenous CB2R in human Jurkat cells (Homo sapiens, UniProt P34972); assay: Competition binding, [^3H]-RO6753361, Jurkat cell membranes
T1 construct: endogenous CB2R in human Jurkat cells; endogenous in cells; host or cells: Jurkat cells
Experimental: Competition and saturation binding assays were performed using the radiolabeled CB1R/CB2R agonist [^3H]-CP55940 (PerkinElmer, Waltham, MA, United States) in recombinant cell systems, and the newly developed CB2R-selective agonist [^3H]-RO6753361 ([Chicca et al., 2024]) in cells expressing endogenous CB1R/CB2R. Competition assays were conducted by incubating 5, 40, or 40 µg of membrane protein from CHO cells, Jurkat cells or spleen cells, respectively, with 1.5 nM [^3H]-CP55940 or 1.5 nM [^3H]-RO6753361 in the presence or absence of increasing concentrations of ligand (RG7774 or control) for 2 h at 30°C in a final volume of 0.2 mL of assay buffer (50 mmol/L Tris-HCl, 5 mmol/L MgCl2, 2.5 mmol/L EDTA, and 0.5% fatty acid-free BSA [pH 7.4] and 1% DMSO), with gentle shaking. Saturation binding assays were conducted by incubating 1–3 μg, 40 μg, or 30–40 μg of membrane protein from CHO cells, Jurkat cells, or spleen tissue, respectively, with 12 concentrations in the range of 80–0.039 nM [^3H]-CP55940 or [^3H]-RO6753361 for 2 h at 30°C in a final volume of 0.2 mL/well of assay buffer without DMSO. […] IC50 values and Hill slopes were determined with a 4-parameter logistic model using ActivityBase (ID Business Solution, Guilford, United Kingdom) and pKi values were determined using the Cheng-Prusoff equation ([Cheng and Prusoff, 1973]).

endogenous CB2R = biological target: T2, endogenous CB2R (Homo sapiens, UniProt P34972); assay: Forskolin-stimulated cAMP in Jurkat cells; type: cell-based; details: data not shown
T2 construct: endogenous CB2R in human Jurkat cells; endogenous in cells; host or cells: Jurkat cells

Human DAGL = Human DAGL assay (HaCaT cells); type: biochemical; details: RG7774 10 µM
Experimental: Mouse brain or human HaCaT cells (CLS Cell Lines Service, GmbH, Eppelheim, Germany) were homogenized in 50 mM Tris-HCl (pH 7.4) using a glass potter, and homogenates were centrifuged at 4°C sequentially at 800 g (10 min) and 10,000 g (30 min). The final pellet (80–200 µg) was resuspended in 50 mM Tris-HCl (pH 7.4) containing 10 mM CaCl2 and incubated at 37°C for 30 min with sn-1[^14C]-stearoyl-2-arachidonoyl-glycerol (100 µM) (ARC, MO, USA). Reactions were stopped by adding chloroform/methanol (2:1, v/v), and the organic phase was dried and fractionated by thin-layer chromatography on silica gel, as previously reported. Levels of 1[^14C]-stearoyl acid radioactivity were determined by cutting the appropriate band from the gel and analyzing using a β-scintillation counter. Mouse cells were preincubated for 15 min with RG7774 (10 µM) and added to the incubation medium. Human cells were preincubated for 15 min with 8 different concentrations of RG7774 (0.1-500 µM) and added to the incubation medium. Control experiments were carried out in the presence of the selective DAGL inhibitor, D053 (10 µM).

logD 7.4 = type: physicochemical; details: octanol/water, pH 7.4
Excerpt: TABLE 2 Physicochemical and ADMET profile for RG7774.

P-gp [2] = biological target: T3, P-gp (Homo sapiens, UniProt P08183); assay: P-gp assay in transfected LLC-PK1 cells; type: in vitro ADME
T3 construct: host or cells: LLC-PK1 (porcine kidney epithelial) cells
Experimental: (§1) The P-gp assay was conducted as previously described. Briefly, transfected porcine kidney epithelial (LLC-PK1) cells expressing human or mouse P-gp were cultured on 96-well semi-permeable filter membrane plates (Millipore, Darmstadt, Germany). LLC-PK1 cells were provided by Dr A. Schinkel from The Netherlands Cancer Institute (Amsterdam, The Netherlands). Cells formed a polarized monolayer with tight junctions that acted as a barrier between apical and basolateral compartments. P-gp was expressed in the apical-facing membrane of the monolayer (tightness confirmed using Lucifer yellow). […] The effect of P-gp was measured by expressing the efflux ratio of the unidirectional A > B and B > A Papp values. The mean permeability (A > B and B > A Papp) was determined in the absence of P-gp via the addition of the selective P-gp inhibitor, zosuquidar.

P-gp [3] = biological target: T4, P-gp (Mus musculus, UniProt P21447); assay: P-gp assay in transfected LLC-PK1 cells; type: in vitro ADME
T4 construct: host or cells: LLC-PK1 (porcine kidney epithelial) cells
Experimental: as §1

Ocular tissue PK in rats = type: in vivo; details: 26 days of oral administration, 3 and 30 mg/kg/day
Experimental: The plasma PK profile of RG7774 was assessed in adult male C57BL/6J mice and female Wistar rats (Charles River, Cologne, Germany) housed in a controlled environment (temperature, humidity, and 12 h light/dark cycle) with unrestricted access to food and water. The ocular PK profile of RG7774 was assessed in adult female […] rats (Charles River, Mattawan, MI, United States) housed in a controlled environment (21°C–22°C temperature, 40%–60%, humidity, and 12 h light/dark cycle) with unrestricted access to food and water and conducted according to local regulations by EyeCRO (Ann Arbor, MI, United States).
[…] […] Samples were collected from the tail vein or via heart puncture (terminal) and prepared within 30 min of collection by centrifugation at 3,000 g for 5 min at 4°C and were immediately frozen. RG7774 concentrations in plasma and homogenized tissues were determined using LC-MS/MS. PK parameters were estimated by non-compartmental analysis of plasma data using Phoenix WinNonlin software (Certara, Princeton, NJ, United States).

[4] = Cerebrospinal fluid versus plasma concentration (data on file); type: in vivo; details: cynomolgus monkeys
Mouse CB1R = Mouse CB1R (Mus musculus, UniProt P47746); assay: Competitive binding assay in mouse brain membranes, [^3H]-CP55940; design: mouse brain membranes expressing endogenous CB1R; from tissue; host or cells: mouse brain membranes; details: RG7774 10 µM; read-out: Mean ± SEM % inhibition of control, Mouse CB1R (competitive binding assay)
Experimental: Mouse brain was resuspended in 2 mM Tris–EDTA, 320 mM sucrose, 5 mM MgCl2 (pH 7.4), homogenized using a glass potter, and centrifuged 3 times, each at 1000 g for 10 min.

Chain of Mouse CB1R (P47746 whole entry): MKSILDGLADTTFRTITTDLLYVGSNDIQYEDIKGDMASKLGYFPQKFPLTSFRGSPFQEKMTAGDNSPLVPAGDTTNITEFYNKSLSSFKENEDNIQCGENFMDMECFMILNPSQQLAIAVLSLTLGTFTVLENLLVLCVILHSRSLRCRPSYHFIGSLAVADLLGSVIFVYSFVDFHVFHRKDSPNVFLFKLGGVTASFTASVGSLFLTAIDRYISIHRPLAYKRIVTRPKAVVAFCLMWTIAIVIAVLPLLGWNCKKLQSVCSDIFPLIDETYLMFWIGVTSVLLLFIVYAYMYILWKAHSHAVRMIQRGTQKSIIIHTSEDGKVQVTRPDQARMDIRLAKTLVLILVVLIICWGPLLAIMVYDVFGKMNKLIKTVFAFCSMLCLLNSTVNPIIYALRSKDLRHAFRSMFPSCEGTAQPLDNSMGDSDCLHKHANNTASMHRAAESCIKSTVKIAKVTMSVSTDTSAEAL
T1 sequence (P34972 whole entry): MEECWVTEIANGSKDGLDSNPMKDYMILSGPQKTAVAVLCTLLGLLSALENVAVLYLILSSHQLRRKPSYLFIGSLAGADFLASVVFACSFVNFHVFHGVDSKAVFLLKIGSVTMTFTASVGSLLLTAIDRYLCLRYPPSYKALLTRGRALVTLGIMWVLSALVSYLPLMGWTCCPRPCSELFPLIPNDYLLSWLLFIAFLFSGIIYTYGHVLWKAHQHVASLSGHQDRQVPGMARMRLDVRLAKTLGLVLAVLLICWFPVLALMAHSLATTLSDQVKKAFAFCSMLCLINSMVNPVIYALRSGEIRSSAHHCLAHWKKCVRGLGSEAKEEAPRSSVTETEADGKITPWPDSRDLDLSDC
T2 sequence (P34972 whole entry): as above
T4 sequence (P21447 whole entry): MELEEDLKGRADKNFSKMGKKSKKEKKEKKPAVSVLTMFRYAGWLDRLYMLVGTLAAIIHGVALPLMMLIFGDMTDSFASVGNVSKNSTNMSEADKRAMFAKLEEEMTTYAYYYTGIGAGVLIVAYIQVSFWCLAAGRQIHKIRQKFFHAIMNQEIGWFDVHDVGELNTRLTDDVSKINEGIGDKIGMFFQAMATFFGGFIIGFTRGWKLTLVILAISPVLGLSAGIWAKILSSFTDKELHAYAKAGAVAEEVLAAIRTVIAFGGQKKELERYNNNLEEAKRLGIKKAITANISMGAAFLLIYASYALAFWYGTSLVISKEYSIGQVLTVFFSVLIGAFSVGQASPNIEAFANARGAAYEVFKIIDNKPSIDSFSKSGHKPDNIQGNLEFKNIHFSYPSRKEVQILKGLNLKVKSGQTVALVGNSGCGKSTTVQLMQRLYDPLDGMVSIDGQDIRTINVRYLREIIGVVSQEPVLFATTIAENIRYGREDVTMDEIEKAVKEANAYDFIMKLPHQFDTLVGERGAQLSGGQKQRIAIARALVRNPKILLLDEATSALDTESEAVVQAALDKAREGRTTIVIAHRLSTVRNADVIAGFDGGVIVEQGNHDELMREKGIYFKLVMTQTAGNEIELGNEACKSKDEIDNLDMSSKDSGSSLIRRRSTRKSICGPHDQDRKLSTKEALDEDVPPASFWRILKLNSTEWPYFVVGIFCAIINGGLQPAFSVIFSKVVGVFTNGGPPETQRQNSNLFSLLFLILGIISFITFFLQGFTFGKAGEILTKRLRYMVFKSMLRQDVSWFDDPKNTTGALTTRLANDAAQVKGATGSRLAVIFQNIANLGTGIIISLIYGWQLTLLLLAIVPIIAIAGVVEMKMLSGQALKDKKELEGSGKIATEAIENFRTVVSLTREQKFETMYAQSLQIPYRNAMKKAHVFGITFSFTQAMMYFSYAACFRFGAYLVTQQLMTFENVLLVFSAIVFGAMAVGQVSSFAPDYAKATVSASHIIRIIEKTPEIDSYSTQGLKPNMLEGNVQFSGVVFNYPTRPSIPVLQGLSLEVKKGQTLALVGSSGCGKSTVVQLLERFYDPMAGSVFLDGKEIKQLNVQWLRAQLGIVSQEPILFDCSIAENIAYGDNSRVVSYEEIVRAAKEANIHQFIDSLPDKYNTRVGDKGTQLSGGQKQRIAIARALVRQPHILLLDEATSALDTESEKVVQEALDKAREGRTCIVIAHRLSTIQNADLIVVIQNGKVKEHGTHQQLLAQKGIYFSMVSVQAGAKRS
T3 sequence (P08183 whole entry): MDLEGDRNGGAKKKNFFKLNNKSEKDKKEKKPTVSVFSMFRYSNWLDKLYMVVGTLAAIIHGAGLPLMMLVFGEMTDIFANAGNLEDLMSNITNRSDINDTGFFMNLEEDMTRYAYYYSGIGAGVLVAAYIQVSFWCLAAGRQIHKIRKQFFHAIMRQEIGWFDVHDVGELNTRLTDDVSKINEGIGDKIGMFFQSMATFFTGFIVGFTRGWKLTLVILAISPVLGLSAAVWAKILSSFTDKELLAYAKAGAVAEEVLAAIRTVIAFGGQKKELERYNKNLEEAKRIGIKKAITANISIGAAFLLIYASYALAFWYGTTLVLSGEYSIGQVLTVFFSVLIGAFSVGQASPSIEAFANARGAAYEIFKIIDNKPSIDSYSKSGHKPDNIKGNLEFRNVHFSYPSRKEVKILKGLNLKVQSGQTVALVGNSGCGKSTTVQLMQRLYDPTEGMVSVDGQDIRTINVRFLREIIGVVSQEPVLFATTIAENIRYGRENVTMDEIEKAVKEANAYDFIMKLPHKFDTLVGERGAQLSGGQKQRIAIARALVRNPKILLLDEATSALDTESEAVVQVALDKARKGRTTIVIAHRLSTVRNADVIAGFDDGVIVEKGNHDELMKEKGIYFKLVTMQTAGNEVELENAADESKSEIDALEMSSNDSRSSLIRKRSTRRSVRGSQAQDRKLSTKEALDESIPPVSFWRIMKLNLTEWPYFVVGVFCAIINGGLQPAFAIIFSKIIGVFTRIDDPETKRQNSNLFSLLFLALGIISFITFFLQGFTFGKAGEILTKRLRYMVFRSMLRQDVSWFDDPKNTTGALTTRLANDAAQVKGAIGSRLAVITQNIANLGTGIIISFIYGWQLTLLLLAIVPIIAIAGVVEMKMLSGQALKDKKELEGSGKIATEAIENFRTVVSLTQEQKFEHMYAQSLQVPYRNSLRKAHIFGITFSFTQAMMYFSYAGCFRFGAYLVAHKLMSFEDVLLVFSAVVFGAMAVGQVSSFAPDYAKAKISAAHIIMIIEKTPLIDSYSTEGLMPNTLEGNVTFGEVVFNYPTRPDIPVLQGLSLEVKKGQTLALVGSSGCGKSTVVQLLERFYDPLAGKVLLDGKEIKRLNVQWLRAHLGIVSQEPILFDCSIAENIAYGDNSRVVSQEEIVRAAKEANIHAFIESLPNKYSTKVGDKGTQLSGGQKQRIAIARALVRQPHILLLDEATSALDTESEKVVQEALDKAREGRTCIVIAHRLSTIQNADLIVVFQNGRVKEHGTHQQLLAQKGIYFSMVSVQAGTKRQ

Q: Which results are given for `Cn1nnnc1Cn1nnc2c(N3CC[C@H](O)C3)nc(C(C)(C)C)nc21` [RG7774, (S)-1-(5-tert-butyl-3-[(1-methyl-1H-tetrazol-5-yl)methyl]-3H-[1,2,3]triazolo[4,5-d]pyrimidin-7-yl)pyrrolidin-3-ol]?
A: Ki [1]: 31.9 ± 13.4 nM; inhibition of forskolin-stimulated intracellular cAMP levels in Jurkat cells (endogenous CB2R): did not inhibit; Mean ± SEM % inhibition of control, Human DAGL (Human DAGL): 4.2 ± 52.2%; logD (logD 7.4): 2.2; efflux ratio at 3 h (P-gp [2]): 2.5; efflux ratio at 3 h (P-gp [3]): 16.2; concentrations in retina and choroid/retinal pigment epithelium tissues relative to plasma (Ocular tissue PK in rats): in the same range as the total plasma concentration; exposure in the vitreous humor relative to plasma (Ocular tissue PK in rats): closer to that found in free plasma; concentrations lower in cerebrospinal fluid than in plasma [4]: approximately 10 fold; inhibition at 10 µM (Mouse CB1R): 3.8%
